Assay results reported in publication PMC5862982 (ACS chemical neuroscience, 2017).

Legend:
[1] = target: T1, membrane-bound aminopeptidase activity in the CA3 (Rattus norvegicus, UniProt P15684); format: biochemical
T1 sequence (P15684 2-965): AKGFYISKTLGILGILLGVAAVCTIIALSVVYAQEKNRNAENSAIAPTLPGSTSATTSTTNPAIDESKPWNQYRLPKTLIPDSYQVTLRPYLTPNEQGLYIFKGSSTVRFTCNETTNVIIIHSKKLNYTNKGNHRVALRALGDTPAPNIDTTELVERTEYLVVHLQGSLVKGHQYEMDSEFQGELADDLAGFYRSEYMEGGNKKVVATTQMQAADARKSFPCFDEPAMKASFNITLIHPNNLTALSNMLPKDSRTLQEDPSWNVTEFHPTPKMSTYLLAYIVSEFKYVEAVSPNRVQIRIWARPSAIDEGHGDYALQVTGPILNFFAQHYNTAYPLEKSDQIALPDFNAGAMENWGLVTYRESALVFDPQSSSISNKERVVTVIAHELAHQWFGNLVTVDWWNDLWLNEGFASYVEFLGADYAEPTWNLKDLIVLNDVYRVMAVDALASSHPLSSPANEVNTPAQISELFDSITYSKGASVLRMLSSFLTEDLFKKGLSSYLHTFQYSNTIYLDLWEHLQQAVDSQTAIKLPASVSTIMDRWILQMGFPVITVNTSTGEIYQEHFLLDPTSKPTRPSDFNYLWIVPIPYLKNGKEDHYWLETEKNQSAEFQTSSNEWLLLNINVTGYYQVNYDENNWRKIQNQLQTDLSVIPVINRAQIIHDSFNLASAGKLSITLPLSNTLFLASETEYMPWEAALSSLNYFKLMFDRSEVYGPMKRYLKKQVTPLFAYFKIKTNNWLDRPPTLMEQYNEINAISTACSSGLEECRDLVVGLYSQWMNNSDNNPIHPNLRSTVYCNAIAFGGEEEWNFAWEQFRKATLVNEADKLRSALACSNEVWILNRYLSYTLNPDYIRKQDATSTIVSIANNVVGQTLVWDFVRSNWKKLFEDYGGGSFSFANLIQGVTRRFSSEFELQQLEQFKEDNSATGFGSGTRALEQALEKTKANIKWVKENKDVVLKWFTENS

[2] = target: puromycin-sensitive aminopeptidase (PSA, EC 3.4.11.14); conditions: cited from earlier work
[3] = target: T2, membrane-bound aminopeptidase activity in the CA1 (Rattus norvegicus, UniProt P15684); format: biochemical
T2 sequence (P15684 2-965): T1 sequence (P15684 2-965)

[4] = tested on: ectopeptidases in whole OHSCs; conditions: EO sampling; cited from earlier work
[5] = target: aminopeptidase N (APN, EC 3.4.11.2); conditions: cited from earlier work

Row | SMILES | Ki [1] | Ki [2] | Ki [3] | effect on hydrolysis of exogenously applied YGGFL [4] | Ki [5]
1 | CC(C)C[C@H](NC(=O)[C@@H](O)[C@H](N)Cc1ccccc1)C(=O)O [bestatin] | 11 ± 7 µM | 0.5 µM | 12 ± 9 µM |  | 
2 | COc1ccc(C[C@H](N)C(=O)N[C@H]2[C@@H](O)[C@H](n3cnc4c(N(C)C)ncnc43)O[C@@H]2CO)cc1 [puromycin] |  | 1 µM |  | little to no effect | 100 µM
